From patent US9745345B2, “Anti-tumor polypeptides and method for preparing anti-tumor drugs comprisng the same” (priority 2013, dated 2017)
Square brackets hold non-standard residues; d marks the D form. Ends that are not written are not given here. pS = N[C@@H](COP(=O)(O)O)C(=O)O; Ahx = NCCCCCC(=O)O

Legend:
[1] = tested on: Human melanoma A375 cells; assay: Human melanoma A375 subcutaneous xenograft in BALB/c nude mice, intratumoral injection of polypeptides; type: in vivo
Protocol: Human melanoma A375 cells in the logarithmic phase of growth were cultured under sterile conditions to prepare a 5×10^6/200 μL cell suspension, and 200 μL cell suspension was separately injected into BALB/c nude mice subcutaneously. An electronic digital vernier caliper was used to measure the long-axis and short-axis diameters of the transplanted tumors, and the formula: Tumor Volume (TV)=½×Long-axis Diameter×Short-axis Diameter^2 was used to calculate the volume of the tumors. The mice were randomly grouped when the tumor volume reach about 100 mm^3.
Polypeptides JWA-1, JWA-2, JWA-3, and an equivalent peptide blend (Pep) of the three polypeptides were injected into the tumors of the various groups of mice respectively, and the doses used were 25 mg/kg and 10 mg/kg, respectively; the negative control group was injected with an equal amount of sterile phosphate-buffered saline (PBS). The polypeptide injection groups and the control group were administered on alternate days (48 hrs interval) by injection for 5 times; and the body weight of the mice and their tumor diameters were measured at each administration. After completion of the experiment the mice were sacrificed after anesthesia, tumors were separated from the bodies and their weight were measured.
In this example, the method for dorsal subcutaneous tumor bearing of BALB/c nude mice by inoculation of A375 cells is the same as Example 2.
The aforementioned BALB/c nude mice inoculated with human melanoma A375 cells by intratumoral injection were separately treated using polypeptide JWA-1 of low dose (5 mg/kg), medium dose (10 mg/kg) and high dose (15 mg/kg); at the same time, a sterile PBS negative control group and a 10 mg/kg non-pep injection group (referred to simply as “non-pep group”, the polypeptide sequence used was SEQ ID NO: 14; […]-EEMQR, the N-terminus thereof being acetylated and the C-terminus thereof amidated) were established. The establishment of the non-pep group was for observing whether JWA polypeptides have any specific anti-tumor effect.
To verify the impact of phosphorylation of S in polypeptide JWA-1 on the anti-tumor effect thereof, a non-phosphorylated polypeptide JWA-7 injection group (10 mg/kg) was added in the aforementioned experiment.
(§1) The various groups were administered by intratumoral injection on alternate days for 5 times consecutively; and the body weight of the mice and their tumor diameters were measured at each administration. After completion of the experiment the mice were sacrificed after anesthesia, tumors were separated from the bodies and the tumor weights were measured.
The BALB/c nude mice inoculated with human melanoma A375 cells were separately treated using 10 mg/kg polypeptides JWA-1, JWA-4, JWA-5, and JWA-6; at the same time, a 10 mg/kg non-pep injection group (referred to simply as “non-pep group”, the polypeptide sequence used was the same as Example 3) was established.
The mice with transplanted tumors in this example were the same as Example 2, and the experimental method used therein was also the same as Example 2. The various polypeptides were administered by intratumoral injection at a dose of 10 mg/kg, and a non-pep injection group (referred to simply as “non-pep group”, the polypeptide sequence used was the same as Example 3) was established.

A375 cells [2] = assay: Western Blot of apoptosis-related molecules (PARP-1, caspase-3) in A375 cells; type: cell-based, human; conditions: A375, 24 hrs
Protocol: (§2) The combined effect of ATO and polypeptide JWA-6 on the self-destruction of protein expression was also determined A375 cells in the logarithmic phase of growth were conventionally digested and 5×10^5 cells were inoculated evenly in a 60 mm cell culture dish, and different doses of ATO were used to individually treat the cells for 24 hrs, or different doses of ATO in combination with different doses of polypeptide JWA-6 were used to treat the cells for 24 hrs, after which 0.18 mL of RIPA lysis buffer containing 0.5% phenylmethanesulfonyl fluoride (PMSF) was added to extract protein. After centrifugation at 12000×g for 15 minutes, the supernatant was taken, protein concentration was examined. Based on the molecular weight measured, a polyacrylamide gel having a suitable concentration was chosen for protein electrophoresis where each well was added with […] of protein, and the conditions for electrolysis were 60 V, 30 minutes and 90 V, 1-1.5 hrs. After completion of the electrolysis, semi-dry transfer was performed to transfer the protein from the gel onto a polyvinylidene difluoride (PVDF) membrane. After completion of the transfer, the membrane was blocked with 5% skim milk at room temperature for 1-2 hrs. Then, the membrane was washed 3 times (each lasting 5 minutes) using Tris-buffered Saline with Tween (TBST) containing 0.1% Tween-20, and incubation of the corresponding antibody was performed overnight at 4° C. On the next day, membrane was washed 3 times (each lasting 5 minutes) using Tris-buffered Saline with Tween (TBST) containing 0.1% Tween-20; incubation of secondary antibody was performed at room temperature for 1-2 hrs; and again membrane was washed 8 times (each lasting 5 minutes) using Tris-buffered Saline with Tween (TBST) containing 0.1% Tween-20. The membrane was added with enhanced chemiluminescence (ECL) liquid and exposed.
Polypeptide CPP-JWA-6 at a dose of 20 μM, 50 μM was applied individually and applied in combination with ATO (5 μM) on A375 cells (as shown in FIG. 40) and SGC7901 cells (as shown in FIG. 41) for 24 hrs before protein was extracted, and the Western Blot method of Example 7 was used to examine the changes in apoptosis-related molecules.

SGC7901 cells = assay: Western Blot of PARP-1 in SGC7901 cells; type: cell-based; conditions: 24 hrs
Protocol: as §2, with “exposed. […]” for “exposed.”

[3] = tested on: Human Melanoma A375 Cells; assay: Cell proliferation with CCK8 reagent, A375 cells; type: cell-based; conditions: 0-50 μM, 24, 48 and 72 hrs, in comparison with the control group
Protocol: (§3) B16F10 or A375 cells in the logarithmic phase of growth were trypsinized and seeded in a 96-well plate (5×10^3 cells/well), and were treated with different doses (0 μM, 5 μM, 10 μM, 25 μM, 50 μM) of polypeptide JWA-1, JWA-5, JWA-6 or non-pep (the polypeptide sequence used was the same as Example 3) for 24 hrs, 48 hrs and 72 hrs, respectively. The original culture medium was removed from the 96 wells at the indicated time and cell proliferation was determined with CCK8 reagent according to the manufacturer's instructions. Four duplicate samples were taken from each group and the experiments were repeated for three times.

[4] = tested on: Mouse Melanoma B16F10 Cells; assay: Cell proliferation with CCK8 reagent, B16F10 cells; type: cell-based; conditions: 0-50 μM, 24, 48 and 72 hrs, in comparison with the control group
Protocol: as §3

[5] = tested on: human melanoma A375 cells; assay: Human melanoma A375 subcutaneous xenograft in NOD/SCID mice, intraperitoneal injection of polypeptides; type: in vivo; conditions: Example 5, alternate days, 5 times
Source text: The polypeptide designed and synthesized in this example was JWA-6+RGD whose sequence was SEQ ID NO: 7, i.e. 6-aminocaproic acid-FPGSDRF-GGGG-RGD, wherein amino acid S was phosphorylated. In addition, the N-terminus of the polypeptide sequence was acetylated and the C-terminus thereof was amidated during synthesis to prevent rapid degradation of the polypeptide. In this example, non-obese diabetic/severe combined immunodeficiency (NOD/SCID) mice were chosen for tumor-bearing model and the method for dorsal subcutaneous tumor bearing by inoculation of human melanoma A375 cells is the same as Example 2. The mice were randomly divided into four treatment groups after the tumors grew to a volume of about 100 mm^3. […]
as §1, with “Then, 50 mg/kg polypeptide JWA-6, 10 mg/kg polypeptide JWA-6+RGD, 50 mg/kg polypeptide JWA-6+RGD, and 50 mg/kg non-pep (the polypeptide sequence used was the same as Example 3) were injected intraperitoneally. The” for “The”, “with” for “by intratumoral”, “weights” for “weights were”
Thereafter, the tumor bearing mice were obtained using the foregoing method of this example and divided into seven injection groups which were intraperitoneally injected with polypeptides JWA-6+RGD, JWA-6+RGD0, JWA-6+RGD1, JWA-6+RGD3, JWA-6+RGD7, JWA-6+RGD10, and non-pep (the polypeptide sequence used was the same as Example 3) at a dose of 50 mg/kg. The various groups were administered by intraperitoneal injection on alternate days for 5 times consecutively; and the body weight of the mice and their tumor diameters were measured at each administration. The day of first administration was taken as the first day, and the experiment was stopped on the twelfth day when the mice were sacrificed after anesthesia, and tumors were separated from the bodies and the tumor weights were measured.

A375 cells [6] = assay: Cytoactivity of A375 cells treated with ATO alone or with polypeptides in combination with ATO; type: cell-based, human; conditions: polypeptide 50-500 μM in combination with ATO 0.5-5 μM, 24 and 48 hrs
Protocol: Firstly, the dose and time for treatment of A375 cells with ATO were determined. A375 cells in the logarithmic phase of growth were conventionally digested and seeded in a 96-well plate (5×10^3 cells/well), and different doses (5 μM, 10 μM, 25 μM, 50 μM) of ATO were used to treat the cells for 24 hrs and 48 hrs after cell attachment. It was discovered that the activity of A375 cells was reduced by 40% after 24 hrs of treatment with 5 μM ATO (as shown in FIG. 24), and that the cell growth inhibition rate was approximately 100% after 48 hrs of treatment with different doses of ATO (as shown in FIG. 25). Therefore, ATO with a concentration smaller than or equal to 5 μM was chosen to treat the cells for 24 hrs for subsequent reference of dose and time for combined medication.

[7] = 20, 50 μM polypeptide combined with ATO 5 μM, in comparison with ATO alone
[8] = polypeptide alone at a dose not exceeding 50 μM
[9] = Example 4, 10 mg/kg intratumoral, alternate days, 5 times, compared among polypeptides
[10] = Example 3, 10 mg/kg intratumoral, alternate days, 5 times, 10 mg/kg

6-aminoacetic acid-EEMQR [non-pep, reference compound]
tumor inhibition effect ([1]; Example 3, 10 mg/kg intratumoral, alternate days, 5 times): no tumor inhibition effect

6-aminocaproic acid-(R)9—FPGSDRF ([Ahx]RRRRRRRRRFPG[pS]DRF) [CPP-JWA-6]
PARP-1 spliceosome (A375 cells [2]; [7]): significantly increased
caspase-3 spliceosome (A375 cells [2]; [7]): significantly increased
changes in the expression of PARP-1 (A375 cells [2]; [8]): will not cause any changes
PARP-1 spliceosome (SGC7901 cells; [7]): significantly increased
changes in the expression of PARP-1 (SGC7901 cells; [8]): will not cause any changes

6-aminocaproic acid-PGSDR ([Ahx]PG[pS]DR) [JWA-5]
tumor inhibition effect [1, 9]: significantly worse than that of polypeptide JWA-6
inhibition effect on A375 cells [3]: no inhibition effect
inhibition effect on B16F10 cells [4]: no inhibition effect

6-aminocaproic acid-FFPGSDRFA [JWA-7] ([Ahx]FFPGSDRFA)
tumor inhibition effect [1, 10]: no tumor inhibition effect

6-aminocaproic acid-FPGSDRF-GGGG-RGD (Ac-[Ahx]FPG[pS]DRFGGGGRGD-NH2; SMILES CC(=O)NCCCCCC(=O)N[C@@H](Cc1ccccc1)C(=O)N1CCC[C@H]1C(=O)NCC(=O)N[C@@H](COP(=O)(O)O)C(=O)N[C@@H](CC(=O)O)C(=O)N[C@@H](CCCNC(=N)N)C(=O)N[C@@H](Cc1ccccc1)C(=O)NCC(=O)NCC(=O)NCC(=O)NCC(=O)N[C@@H](CCCNC(=N)N)C(=O)NCC(=O)N[C@@H](CC(=O)O)C(N)=O) [JWA-6+RGD]
tumor inhibition effect ([5]; 10 mg/kg intraperitoneal): a certain degree of tumor inhibition effect
tumor inhibition effect ([5]; 50 mg/kg intraperitoneal): better tumor inhibition effect

6-aminocaproic acid-FFPGSDRFA [JWA-1] ([Ahx]FFPG[pS]DRFA)
inhibition effect on subcutaneous tumor growth in nude mice ([1]; Example 2, 10 mg/kg intratumoral, alternate days, 5 times, in comparison with PBS control group): more significant
tumor weight to body weight ratio ([1]; Example 2, 10 mg/kg intratumoral, alternate days, 5 times, in comparison with PBS control group, P<0.05): smaller
tumor inhibition effect [1, 10]: significant tumor inhibition effect
dose-effect relation of tumor inhibition ([1]; Example 3, 5, 10 and 15 mg/kg intratumoral): no trend of enhanced effect was detected along with dose increase
inhibition effect on A375 cells [3]: no inhibition effect
inhibition effect on B16F10 cells [4]: no inhibition effect
cytoactivity of A375 cells, combined use with ATO (A375 cells [6]): no synergistic effect

6-aminocaproic acid-GSD [JWA-4]
tumor inhibition effect [1, 9]: significantly worse than that of polypeptide JWA-6
